Reference: patent US9023789B2, “Amylin analogs and pharmaceutical compositions thereof” (Novo Nordisk A/S, priority 2012, dated 2015)
Numbered stars: 1 amine (or outer) side, 2 acyl side, 3 side chain; on linkers, the order of the positions; unused ones are H or OH. Bridge positions count the residues as written; N and C are the ends. Peptide text beside a SMILES is read from it. * marks the point of attachment. C20 diacid = O=C(O)CCCCCCCCCCCCCCCCCCC(=O)*; γGlu = O=C(O)[C@H](CCC(=O)[*:2])N[*:1]

Assays:
[1] = target: T1, human amylin receptor (membranes from Amylin 3(a)/CRE-luc cells) (Homo sapiens, UniProt O60896+P30988); experiment: ASSAY (V) binding to the human amylin receptor (SPA, 125I-rat amylin);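 also: competition binding of cell membranes (35 ng/µL) mixed with SPA beads in 384-well plates at 40 µL total volume, read by scintillation counting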
T1 construct: expressed in transfected cells
T1 sequence (P30988 25-474): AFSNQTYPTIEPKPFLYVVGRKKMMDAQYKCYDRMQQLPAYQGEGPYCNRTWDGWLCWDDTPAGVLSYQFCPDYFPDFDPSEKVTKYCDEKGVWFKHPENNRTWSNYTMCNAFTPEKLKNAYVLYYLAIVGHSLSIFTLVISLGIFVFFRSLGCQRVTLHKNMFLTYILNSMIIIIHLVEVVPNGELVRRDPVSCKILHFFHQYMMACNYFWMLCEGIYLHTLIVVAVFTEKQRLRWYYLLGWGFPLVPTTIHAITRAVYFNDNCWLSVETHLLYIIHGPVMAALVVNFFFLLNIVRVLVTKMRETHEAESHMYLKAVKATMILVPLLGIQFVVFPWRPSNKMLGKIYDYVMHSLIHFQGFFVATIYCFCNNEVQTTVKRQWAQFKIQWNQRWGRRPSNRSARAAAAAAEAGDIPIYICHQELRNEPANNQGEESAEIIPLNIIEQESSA
T1 sequence (O60896 24-148 partner): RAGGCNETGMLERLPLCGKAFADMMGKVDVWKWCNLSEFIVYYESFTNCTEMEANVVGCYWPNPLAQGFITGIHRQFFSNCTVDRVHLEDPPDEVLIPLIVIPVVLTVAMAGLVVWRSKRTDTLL

[2] = target: T2, rat amylin receptor (rat calcitonin receptor + rat RAMP 3) (Rattus norvegicus, UniProt P32214+Q9JJ73); experiment: ASSAY (VI) binding to the rat amylin receptor; conditions: Table 7
T2 construct: expressed in transfected cells; host or cells: BHK tk'ts 13 (transient, FuGENE 6), membranes
T2 sequence (P32214 25-479 isoform P32214-2 limits assumed): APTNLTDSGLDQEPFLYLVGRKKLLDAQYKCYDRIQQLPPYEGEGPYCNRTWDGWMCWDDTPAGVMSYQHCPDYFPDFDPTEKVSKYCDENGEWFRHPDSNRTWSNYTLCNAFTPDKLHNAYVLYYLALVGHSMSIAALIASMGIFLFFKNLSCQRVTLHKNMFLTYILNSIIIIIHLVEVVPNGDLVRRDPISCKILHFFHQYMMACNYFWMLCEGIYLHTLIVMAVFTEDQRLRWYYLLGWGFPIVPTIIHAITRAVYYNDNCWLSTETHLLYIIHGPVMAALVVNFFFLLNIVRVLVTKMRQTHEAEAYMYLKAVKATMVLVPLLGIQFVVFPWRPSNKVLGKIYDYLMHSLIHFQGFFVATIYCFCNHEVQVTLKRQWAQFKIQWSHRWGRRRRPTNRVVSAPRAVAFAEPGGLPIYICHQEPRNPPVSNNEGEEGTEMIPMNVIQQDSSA
T2 sequence (Q9JJ73 23-147 partner): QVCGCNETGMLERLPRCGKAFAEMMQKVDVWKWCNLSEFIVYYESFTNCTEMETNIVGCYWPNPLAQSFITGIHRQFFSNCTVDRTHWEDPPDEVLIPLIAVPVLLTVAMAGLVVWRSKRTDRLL
Protocol: Assay (VI)—Determination of the Binding to the Rat Amylin Receptor […] The BHK tk′ts 13 cells were transiently transfected with rat calcitonin receptor using FuGENE® 6 (Roche), according to the manufacturer's recommendations. […] Approximately 48 hours after transfection, the cells were harvested and membranes were prepared.

[3] = target: T3, human amylin 3(a) receptor (human calcitonin receptor + RAMP-3) in BHK570 cells (Homo sapiens, UniProt O60896+P30988); experiment: ASSAY (II)a functional assay, human amylin receptor (CRE luciferase); format: cell-based
T3 construct: expressed in transfected cells
Excerpt: 1. Luciferase Assay Outline
Activation of calcitonin and amylin (coexpression of calcitonin receptor and receptor activity modifying proteins (RAMP)) receptors lead to increased intracellular concentrations of cAMP. Consequently, transcription is activated by promoters containing multiple copies of the cAMP response element (CRE). It is thus possible to measure amylin activity by the use of a CRE luciferase reporter gene introduced into BHK cells also expressing calcitonin or amylin receptors.
2. Construction of Calcitonin (a)- and Amylin 3(a)-Receptor/CRE-Luc Cell Line.
The cell line was further transfected with RAMP-3, using standard methods. This turns the calcitonin receptor into an amylin 3(a) receptor. Methotrexate, Neomycin, and Hygromycin are selection markers for luciferase, the calcitonin receptor, and RAMP-3, respectively.
To perform activity assays, BHK calcitonin (a) receptor- or amylin 3(a)-receptor/CRE-luc cells were seeded in white 96 well culture plates at a density of about 20.000 cells/well. […] After incubation overnight at 37° C. and 5% CO2, the growth medium was replaced by 50 μl/well assay medium (DMEM (without phenol red), Glutamax™, 10% FBS, and 10 mM Hepes, pH 7.4). Further, 50 μl/well of standard or sample in assay buffer were added. After 3 hours incubation at 37° C. and 5% CO2, the assay medium with standard or sample were removed and replaced by 100 μl/well PBS. Further, 100 μl/well LucLite™ was added. The plates were sealed and incubated at room temperature for 30 minutes. Finally, luminescence was measured on a TopCounter (Packard) in SPC (single photon counting) mode.

CC(C)C[C@H](NC(=O)[C@H](CCCNC(=N)N)NC(=O)[C@H](CCC(N)=O)NC(=O)[C@@H](NC(=O)[C@H](C)NC(=O)[C@@H]1CSSC[C@H](NC(=O)[C@H](CCCCN)NC(=O)CC[C@H](NC(=O)CCCCCCCCCCCCCCCCCCC(=O)O)C(=O)O)C(=O)N[C@@H](CC(N)=O)C(=O)N[C@@H]([C@@H](C)O)C(=O)N[C@@H](C)C(=O)N[C@@H]([C@@H](C)O)C(=O)N1)[C@@H](C)O)C(=O)N[C@@H](C)C(=O)N[C@@H](CCC(=O)O)C(=O)N[C@@H](Cc1ccccc1)C(=O)N[C@@H](CC(C)C)C(=O)N[C@@H](CCCNC(=N)N)C(=O)N[C@@H](Cc1c[nH]cn1)C(=O)N[C@@H](CO)C(=O)N[C@@H](CO)C(=O)N1CCC[C@H]1C(=O)N[C@@H](CC(N)=O)C(=O)N[C@@H](Cc1ccccc1)C(=O)NCC(=O)N[C@@H](C)C(=O)N1CCC[C@H]1C(=O)N[C@@H](CC(C)C)C(=O)N[C@@H](CO)C(=O)N[C@@H](CO)C(=O)N[C@H](C(=O)N[C@@H](CC(N)=O)C(=O)N[C@H](C(=O)NCC(=O)N[C@@H](CO)C(=O)N[C@@H](CC(N)=O)C(=O)N[C@H](C(=O)N1CCC[C@H]1C(N)=O)[C@@H](C)O)C(C)C)[C@@H](C)O [Example 5] ({C20 diacid-γGlu}-KCNTATCATQRLAEFLRHSSPNFGAPLSSTNVGSNTP-NH2; disulfide 2-7)
Ratio hCT/hAmylin binding ([1]; Table 5, selectivity, hCTR bind IC50 / hAmylin-R bind IC50): 1.4 | Ratio hCT/hAmylin binding ([1]; Table 7, human binding selectivity, included for comparison): 1.4 | IC50 ([2]; binding to rat amylin receptor, read-out: rAmylin-R bind IC50): 1.3 nM | Ratio rCT/rAmylin binding ([2]; rat binding selectivity, rCTR IC50 / rAmylin-R IC50): 3.6 | Ratio hCT/hAmylin funct. ([3]; hCTR funct. EC50 / hAmylin-R funct. EC50): 1.0 | Ratio hCT/hAmylin funct. ([3]; hCTR funct. EC50 over hAmylin-R funct. EC50): 1.0 | Ratio hCT/hAmylin funct. ([3]; human functional selectivity: hCTR funct. EC50 / hAmylin-R funct. EC50): 1.0
